In publication PMC5700124 (Scientific Reports, 2017):
Values joined by “and” are separate entries in the source; they are usually repeats but may differ in a detail not shown here. Identical values can stand only once. Like-named read-outs stand apart in the source and are kept apart here.

Legend:
[1] = set-up: method as in Jakobsen et al.[14]; details: pigs; challenge, compared with yohimbine; ref Jakobsen et al.[14]; cited from earlier work
[2] = tested on: α2 adrenoceptor subtypes; set-up: method as in PMID 7908054; details: cited from earlier work
[3] = tested on: α2 adrenoceptors; set-up: method as in Jakobsen and colleagues[14]; details: porcine brain; low dose 0.15 mg/kg vs 0.7 mg/kg; ref Jakobsen and colleagues[14]; cited from earlier work
[4] = tested on: [^11C]mirtazepin binding in porcine brain; set-up: method as in Smith et al.[34]; details: ref Smith et al.[34], cited from earlier work
[5] = molecular target: α2 adrenoceptor; details: parieto-occipital cortex, pH 7.5, 25.0 °C, mg^2+ 1 mM, blocking of NS adrenaline 10 μM, cited from earlier work
[6] = molecular target: α2 adrenoceptor; set-up: method as in Rout et al.[32]; details: cortex, pH 7.0, 25.0 °C, blocking of NS noradrenaline 100 μM, ref Rout et al.[32], cited from earlier work
[7] = molecular target: α2 adrenoceptor; details: cerebral cortex, pH 7.4, 25.0 °C, mg^2+ 0, blocking of NS phentolamine 10 μM, cited from earlier work
[8] = tested on: α2 adrenoceptors; assay: Eadie-Hofstee Plot of PET binding potentials (receptor density Bmax and KD in vivo); set-up: species or system rat
Description: The values of BPND enabled us to determine the α2 adrenoceptor density in vivo. As presented in Fig. 4A, we estimated values of receptor density, Bmax, and receptor affinity (1/KD) by means of Eadie-Hofstee plots. We calculated the bound quantity according to eq. 2, based on the information of the BPND and specific activity. We found the greatest receptor densities in thalamus, caudate putamen, and cortical areas, with the lowest densities in cerebellum and olfactory bulb as presented in Fig. 4B. The regional receptor densities are listed in detail in Table 2 and specific activity in Table 3.
We derived the present method from well-known principles of kinetics. We identified the following six steps to the determination of binding parameters of radioligands that achieve receptor occupancy. […] The variable B is the bound quantity of the ligand, and BPND is the binding potential of the radioligand at the specific degree of occupancy. To solve the equation of the Eadie-Hofstee plot for the two parameters, it is necessary to know the bound quantities of the ligand and the binding potentials in at least two conditions of different occupancy. The bound quantity is related to the binding potential by the relationship,2 B=M(BPND/1+BPND), where M is the total mass of the ligand per unit volume of brain tissue, calculated from the known specific activity of the radioligand.
The sixth and final step was the graphical solution to the Eadie-Hofstee Plot of eq. (1) (Eadie 1952, Hofstee 1952), where B is the bound quantity and BPND is the binding potential of ligands. We calculated the bound quantity from the relationship described by eq. 2.

[9] = tested on: α2 adrenoceptors; details: cited from earlier work
[10] = tested on: α2 adrenoceptors; assay: PET of [^11C]yohimbine binding in rat brain at baseline and at challenge with unlabeled yohimbine; details: for Volumes of Distribution, VT, BASE: baseline; for Volumes of Distribution, VT, BASE / Volumes of Distribution, VT, COLD: individual rats 1-5; for Volumes of Distribution, VT, COLD: challenge with unlabeled yohimbine 0.3 mg/kg i.v.
[11] = tested on: plasma proteins; details: in the circulation; cited from earlier work

COC1(C2=NCCN2)COc2ccccc2O1 (stereo not shown) [RX821002]
effect on CBF [1]: opposite effect
affinity to α2 adrenoceptor subtypes [2]: higher affinity to α2A and α2C than to α2B
decline of VT of [^11C]yohimbine [3]: greater decline of the value of VT than the higher dose of 0.7 mg/kg
reduction of [^11C]mirtazepin binding ([4]; 0.1 mg/kg): 35%
reduction of [^11C]mirtazepin binding ([4]; 1 mg/kg): failed to inhibit the binding further

COC1(C2=NCCN2)COc2ccccc2O1 (stereo not shown) [[^3H]RX821002]
Kd ([5]; ref Ribas et al.[7]): 0.57 nM
Kd ([5]; ref Ribas et al.[68]): 0.5 nM

COC(=O)[C@@H]1[C@H]2C[C@H]3c4[nH]c5ccccc5c4CCN3C[C@@H]2CC[C@@H]1O [[^3H]yohimbine]
Kd ([7]; ref Brown et al.[44]): 5.2 nM
Kd ([7]; ref Brown et al.[45]): 5.3 nM

[11CH3]OC(=O)[C@@H]1[C@H]2C[C@H]3c4[nH]c5ccccc5c4CCN3C[C@@H]2CC[C@@H]1O [[^11C]yohimbine]
radioactive metabolites in plasma ([9]; data from two rats): no radioactive metabolites
fraction bound to plasma proteins [11]: 82%

CC(N)Cc1ccccc1 (stereo not shown) [amphetamine]
change of VND(b) and fP of [^11C]yohimbine ([9]; amphetamine 2 mg/kg challenge): did not change
